Values joined by “and” are separate entries in the source; they are usually repeats but may differ in a detail not shown here. Equal entries are not always repeated.

The test system of series [1] is Pseudomonas aeruginosa elastase. Particulars: incubation of the reagent with the enzyme; Nishino and Powers, J. Biol. Chem. (1980); cited from earlier work.
The test system of a further series is Casein. The experiment in a line: Proteinase activity on casein (Folin's method), specific activity in mPU. The format is biochemical. The protocol:
In Examples 1 and 2, the term "mPU/ml protein of a specific activity" signifies the proteinase activity determined by the following procedure:
Casein (2%, pH 7.4, 1 ml) is admixed with 1 ml of an appropriately diluted solution of an enzyme, and after a reaction at 40° C. for 10 minutes, 2.0 ml of a solution containing 0.1M trichloroacetic acid and 0.2M sodium acetate is immediately added for stopping a progress of the reaction. The mixture is kept at the same temperature for 20 minutes to precipitate unreacted casein completely and is filtered. 1 ml of the filtrate is subject to determination of tyrosine therein contained by the Folin's method. By the increase of 1γ of tyrosine per 1 minute, a proteinase activity of 1 mPU is to be indicated. 1 mPU×1,000 is equal to 1 PU.

Series [2] is described as follows: Antigenic activity listed among the identified properties of the toxoids. Particulars: listed property.
Series [3] deals with rabbits. The experiment in a line: Antigenicity test on rabbits, Test A: passive hemagglutinative value test (PHA test). It counts as in vivo, rabbit. The following applies: reciprocal of serum dilution; individual rabbits, 1 mg s.c. with Freund's incomplete adjuvant 3 to 4 times, blood two weeks after last inoculation. As for the experimental part:
(§1) Method: Three rabbits, each having 2.5 Kg of a body weight, were subcutaneously inoculated with each 1 mg of Toxoid I together with Freund's incomplete adjuvant and the inoculation was repeated 3 to 4 times at an interval of 2 weeks. On the day of two weeks after the last inoculation, blood was collected from the rabbits and was availed for following Tests A, B and C. The same method as the preceeding was conducted employing Toxoid II.
(§2) The values were determined according to a method described by one of the present inventors, Y. Homma, in The Japan J. Exp. Med., Vol. 45, No. 5, pages 361-365 (1975), and the values were expressed as a reciprocal number to a multiplied number of the dilution of sera.

Series [4] relates to rabbits. The experiment in a line: Antigenicity test on rabbits, Test B: precipitation in agar-gel test. The format is in vivo, rabbit. Particulars: 22° C., 24 hours, dilution at which precipitation line first becomes observable, individual rabbits. The protocol: as §1
In 0.01M phosphate buffer-normal saline solution (pH 7.0) which contained 0.1% of sodium azide, agarose was dissolved to form a concentration of 1.5% by weight, and 10 ml of the solution were poured in a dish having 9 cm of a diameter and the solution was left to make the agar hard. Several holes were made on the hardened agar and antigens or antisera were separately poured into every hole and the agar was left at 22° C. for 24 hours long, then, the existence of a precipitation line was inspected. The concentration of antigens is expressed by a unit of μg/ml, wherein the numerator indicates a quantity of antigens and a denominator indicates the dilution volume which is required until a precipitation line will first becomes observable.

The subject of series [5] is rabbits. The series is described as follows: Antigenicity test on rabbits, Test C: elastase-neutralizing activity test of sera. The format is in vivo, rabbit. Particulars: elastase activity neutralized by 1 ml of anti-serum; individual rabbits. As for the experimental part:
as §1
(§3) Sera of the tested rabbits were warmed at 56° C. for 30 minutes and 0.2 ml of the sera were added to 0.2 ml of elastase solution, to which normal saline solution was added up to a volume of 2 ml in total. The solution was left for 60 minutes at 37° C., then, 1 ml of 2% casein solution was added to 1 ml of the solution. The residual elastase activity was determined with the thus mixed solution.

The test system of series [6] is ddY mice. The series is described as follows: PHA value on mice. It counts as in vivo, mouse. Particulars: 50 μg with potassium alum three times, first and second collected bloods (just before and 14th day after third inoculation). As for the experimental part: as §2
(§4) To a solution of Toxoid I of this invention in a concentration of 0.5 mg/ml., an equal volume of 1% potassium alum solution was added. Each 0.2 ml of the solution, in which 50 μg of Toxoid I were contained, were inoculated into ddY mice of 4 weeks old respectively three times at an interval of 2 weeks. At just before and on the 14th day after the third inoculation, bloods were collected from each mouse and the values of PHA and elastase-neutralizing activity were inspected in the same manner as with Tests A and C in Experiment 1.

Series [7] relates to ddY mice. The experiment in a line: Elastase-neutralizing activity on mice. The format is in vivo, mouse. As for the experimental part:
as §3, §4

A short description of series [8]: Antigenic activity of formalin-treated elastase samples by precipitation line (Table 1). Particulars: quantity of antigen per dilution volume until a precipitation line first becomes visible; larger numeral = less potent. The format is binding. An excerpt:
Note: In the above Table 1, the antigenic activity is expressed by a unit of μg/ml, wherein the numerator indicates the quantity of antigen and the denominator indicates the dilution volume required until a precipitation line first becomes visible.

On to `CC(C)C[C@@H](C(=O)N[C@@H](C)C(=O)NCC(N)=O)N(O)C(=O)CCl` [Powers Reagent, chloroacetyl-N-hydroxy-L-leucyl-L-alanylglycinamide], for which, in series [1], the “effect on enzyme activity of elastase” value is given as “progressive loss of enzyme activity”.
The molecule “Toxoid I: toxoid prepared by inactivating Pseudomonas aeruginosa elastase with the Powers Reagent” returned a specific activity with Casein (casein 2%, pH 7.4, 40° C., 10 minutes) of 0.06 mPU/mg protein. Also, the Enzymatic activity entry in the series with Casein (listed property) was “Negative”. Besides, the Antigenic activity result in [2] is listed as “Positive”. The “PHA Value” with rabbits [3] is 5120 and 2560; in the series on ddY mice [6], 640. In addition, the “Antigen Concentration” value in the series with rabbits [4] was 15 µg/mL. Besides, the “Elastase-neutralizing Activity (mPU/ml)” value with rabbits [5] is 15 mPU/ml and 12 mPU/ml and 10 mPU/ml. Moreover, the figures for the elastase-neutralizing activity in the series with ddY mice [7] (first collected blood (just before third inoculation)) and in the series with ddY mice [7] (second collected blood (14th day after third inoculation)) were 1.52 mPU/ml and 1.83 mPU/ml, respectively.
Consider “crystalline elastase: purified crystalline elastase obtained from Pseudomonas aeruginosa, raw material of the toxoids”, for which the “Residual Proteinase Activity (%)” value with Casein (elastase samples treated with formalin (HCHO), Table 1) stood at 100%. The “Antigenic activity” value in series [8] amounted to 30 µg/mL. Moreover, the “Antigen Concentration” value with rabbits [4] was 15 µg/mL.

These data come from US4575459A, “Toxoids of elastase of Pseudomonas aeruginosa origin” (Toho Yakuhin Kogyo Kabushiki Kaisha, priority 1984, dated 1986).
